Values joined by “and” are separate entries in the source; they are usually repeats but may differ in a detail not shown here. Equal values may be shown once.
How the values were obtained:
human URAT1 = human URAT1 (Homo sapiens (Human), UniProt Q96S37); assay: URAT1 inhibition assay: [8-14C] urate uptake in hURAT1-HEK cells; assay type: cell-based
Procedure: URAT1 (Uric Acid Transporter 1) is expressed on the apical membrane in renal tubules. It mediates the re-uptake of uric acid from the urine into the blood.
A suitable assay involves transfection of cells (e g human embryonic kidney cells; “HEK”) with a vector encoding human URAT1, followed by determination of the ability of transfected cells to take up radiolabeled uric acid. The activity of compounds as URAT1 inhibitors is evaluated by their ability to block uric acid uptake by transfected cells.
Test Compounds and Chemicals:
Urate (50-60 mCi/mmol; American Radio Chemicals, Cat. No. ARC0513).
Subcloning of hURAT1 into the Expression Vector:
Plasmid vector pCMV6-XL5 containing hURAT1 cDNA (Cat. No. SC125624) and the expression vector pCMV6-Neo (Cat. No. pCMVNEO) were obtained from OriGene Technologies, Inc. The full-length hURAT1 cDNA was obtained from the vector pCMV6-XL5 and subcloned into the expression vector pCMV6-Neo to create the hURAT1 expression plasmid pCMV6-hURAT1. The sequences were verified by automatic DNA sequencing.
Cell Culture, Transfection of URAT1 Expressing Plasmids and the Establishment of Stably Expressing HEK Cells for hURAT1:
For transfection experiments, cells were plated on 60 mm dishes in 1 ml media per dish. […] Stable transfectants expressing hURAT1 (herein after referred as hURAT1-HEK cells) or cells having only the expression vector pCMV6-Neo (herein after referred as mock-HEK cells) were verified using reverse transcription polymerase chain reaction (RT-PCR) methods.
[8-^14C] Urate Uptake Assay:
Before the uptake assay started, the culture medium was removed and the cells were incubated for 5 min in 0.6 ml of HBSS. After that HBSS was removed, the prepared reaction solutions were added into each well and incubated for 5 min at room temperature. Then the reaction solution was removed, cells were washed twice with 0.6 ml of cold HBSS and lysed with 0.2 ml of 0.1 M NaOH for 20 min. […] Test compounds were dissolved in DMSO and the same concentration of DMSO was added into the wells of mock-HEK cells and the hURAT1-HEK cells that didn't contain test compounds. For each test compound, the uptake assay was performed 2 times and carried out in triplicate. Urate uptake of the cells for each test condition was presented as the average percent inhibition in comparison to the DMSO control. The radioactivity values obtained for the wells that contained DMSO were taken as 100% uptake of the cells. The observed concentration-percent inhibition data were fitted to a sigmoidal concentration-effect model, where: % Inhibition=(100*Conc^Slope)/(IC50^Slope+Conc^Slope)
In this example the compounds were not necessarily tested simultaneously.

[1] = Rat pilot single-dose oral pharmacokinetic study with Compound EB; assay type: in vivo; conditions: 100 mg/kg single oral gavage; for Compound EB concentration in plasma, individual rats: male Sprague-Dawley rat
Procedure: Rat Pilot Single-Dose Oral Pharmacokinetic Study with Compound EB
Determination of the plasma profile of Compound EB following single oral gavage administration to male rats.
Test compound was suspended in 1% HPMC using a tissue homogenizer to minimize particles and maximize uniformity of the suspension and stored at 4° C. The formulations was thoroughly mixed just prior to administration. A dose of 100 mg/kg of test compounds or vehicle (1% HPMC) was administered to male Sprague-Dawley rats by single oral gavage. […] The blood samples were centrifuged within 30 minutes of collection under refrigeration (2-8° C.) for 7 minutes at 6000 rpm. Following centrifugation, the plasma were harvested into a single tube for each animal at each time point and immediately frozen at −80° C. until analyzed using LC/MS-MS. Serial plasma concentration time data was subjected to pharmacokinetic analyses using WinNonlin Standard (v2.1, Pharsight Corporation) and Microsoft EXCEL.
1. Rats received single oral gavage of Compound EB, 100 mg/kg, and plasma was collected at certain times.
2. Plasma was stored at −80° C. until the day of analysis.
3. Samples were thawed on 37° C. bath for 5 min and vortexed at top speed for 10 sec.
4. Rat plasma, 0.1 mL was mixed with 0.2 mL Acetonitrile, vortexed 1 min, spun down 14000 rpm, 17000 g, at 4° C., for 25 min.
(§1) 5. Supernatants were filtered through 0.45 micron, 4 mm, PTFE membrane syringe filter (Phenomenex # AF0-3102-52), and 13 microL were injected and resolved on Luna 3 micron, 100 A pore, C8(2), 150×3 mm, reverse phase column (Phenomenex#00F-4248-YO, SN#259151-7) in 50 min linear gradient from 40% to 69% of (0.1% Formic Acid, 89.9% Acetonitrile, 10% Methanol) at 0.25 mL/min, 100 bar, 37° C. column temperature, method 406975M1, AGILENT sequence 1015-08A, Agilent 1100 LC-MS.
All samples were run in duplicate, 210 nm and 230 nm Absorbances, Negative and Positive ionization spectrograms were recorded.
Step 1. Plasma from “Vehicle” animals (pooled), 0.19 mL, was mixed with 0.01 mL 20× stock of PN2107 in Methanol to make 500 microM, 250 microM, 125 microM, . . . , concentrations of Compound EB in plasma.
For example: 190 microL plasma+10 microL of 10 mM Compound EB in methanol=0.2 mL plasma with 500 microM Compound EB.
Step 2. Samples from step 1 were vortexed for 10 sec at top speed.
Step 3. 0.4 mL of acetonitrile was added to all samples from Step 2, and all vials were vortexed at top speed for 1 min.
Step 4. All samples from step 3 were spun down 14000 rpm, 17000 g, at 4° C., for 25 min.
as §1, with “Step 5.” for “5.”, “AF0-3102-52),” for “AF0-3102-52), and”, “ml/min,” for “mL/min,”, “temperature.” for “temperature, method 406975M1, AGILENT sequence 1015-08A, Agilent 1100 LC-MS.”

Sequence of human URAT1 (Q96S37 whole entry): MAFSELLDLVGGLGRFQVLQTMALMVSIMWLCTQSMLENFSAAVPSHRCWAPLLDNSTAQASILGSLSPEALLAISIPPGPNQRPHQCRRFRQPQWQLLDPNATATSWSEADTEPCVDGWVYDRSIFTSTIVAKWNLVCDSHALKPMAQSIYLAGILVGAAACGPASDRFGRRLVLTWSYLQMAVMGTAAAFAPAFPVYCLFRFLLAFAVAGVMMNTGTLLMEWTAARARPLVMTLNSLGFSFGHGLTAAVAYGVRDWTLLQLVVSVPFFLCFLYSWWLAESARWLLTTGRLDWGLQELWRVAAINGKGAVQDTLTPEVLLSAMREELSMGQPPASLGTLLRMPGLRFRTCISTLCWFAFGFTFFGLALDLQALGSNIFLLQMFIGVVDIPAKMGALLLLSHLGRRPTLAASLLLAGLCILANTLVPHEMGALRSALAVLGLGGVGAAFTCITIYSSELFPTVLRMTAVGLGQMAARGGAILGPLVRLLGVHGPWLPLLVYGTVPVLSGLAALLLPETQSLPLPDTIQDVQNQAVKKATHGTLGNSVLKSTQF

Which inhibition at 10 µM (human URAT1; 10 μM, hURAT1-HEK cells) does the source give for `Cc1cccc(C)c1COc1cccc(-c2nnn[nH]2)c1` [Compound EB, 5-(3-(2,6-Dimethylbenzyloxy)phenyl)-1H-tetrazole] here?
The inhibition at 10 µM was 90%.

What about the IC50 (human URAT1; 14C urate uptake in hURAT1-HEK cells) of the same compound?
The IC50 was 930 nM.

And the “Detection in rat plasma (in words)” value ([1]; LC-MS)?
The value was “readily detected”.

What about the Cmax ([1]; Sprague-Dawley, rat, male rats, plasma) of the same compound?
The Cmax was 108 µg/mL.

And the AUC(0-t) ([1]; Sprague-Dawley, rat, male rats, plasma, read-out: AUC 0-24)?
The AUC(0-t) was 566 µg·h/mL.

What about the half-life ([1]; Sprague-Dawley, rat, male rats, plasma, read-out: T ½) of the same compound?
The half-life was 3.99 h.

And the “Compound EB concentration in plasma, individual rats” value (“Compound EB concentration in plasma” for short) ([1]; 1 HR)?
Its value is 386 µM and 103 µM.

What about the “Compound EB concentration in plasma” value ([1]; 2 HR) of the same compound?
The value was 75 µM and 206 µM.

And the “Compound EB concentration in plasma” value ([1]; 4 HR)?
The value was 24 µM and 112 µM.

And the “Compound EB concentration in plasma” value ([1]; 6 HR)?
The value was 26 µM and 92 µM.

What about the “Compound EB concentration in plasma” value ([1]; 8 HR) of the same compound?
The value was 72 µM and 202 µM.

And the “Compound EB concentration in plasma” value ([1]; 24 HR)?
Its value is 0 µM and 17 µM.

What about the “Compound EB concentration in plasma” value ([1]; 15 min) of the same compound?
Its value is 184 µM and 159 µM.

And the “Compound EB concentration in plasma” value ([1]; 30 min)?
The value was 37 µM and 125 µM.

And the concentration at 0 h ([1]; male, Sprague-Dawley, rat plasma, time 0, read-out: Compound EB concentrations, averages)?
Its concentration at 0 h is 0 nM and 0 ng/mL.

What about the concentration at 0.25 h ([1]; male, Sprague-Dawley, rat plasma, time 0.25, read-out: Compound EB concentrations, averages) of the same compound?
The concentration at 0.25 h was 172 µM and 48000 ng/mL.

What about the concentration at 0.5 h ([1]; male, Sprague-Dawley, rat plasma, time 0.5, read-out: Compound EB concentrations, averages) of the same compound?
Its concentration at 0.5 h is 81 µM and 22700 ng/mL.

What about the concentration at 1 h ([1]; male, Sprague-Dawley, rat plasma, time 1, read-out: Compound EB concentrations, averages) of the same compound?
Its concentration at 1 h is 244 µM and 68500 ng/mL.

And the concentration at 2 h ([1]; male, Sprague-Dawley, rat plasma, time 2, read-out: Compound EB concentrations, averages)?
The concentration at 2 h was 140 µM and 39300 ng/mL.

And the concentration at 4 h ([1]; male, Sprague-Dawley, rat plasma, time 4, read-out: Compound EB concentrations, averages)?
Its concentration at 4 h is 68 µM and 19000 ng/mL.

What about the concentration at 6 h ([1]; male, Sprague-Dawley, rat plasma, time 6, read-out: Compound EB concentrations, averages) of the same compound?
The concentration at 6 h was 59 µM and 16500 ng/mL.

What about the concentration at 8 h ([1]; male, Sprague-Dawley, rat plasma, time 8, read-out: Compound EB concentrations, averages) of the same compound?
The concentration at 8 h was 137 µM and 38400 ng/mL.

And the concentration at 24 h ([1]; male, Sprague-Dawley, rat plasma, time 24, read-out: Compound EB concentrations, averages)?
Its concentration at 24 h is 8.5 µM and 2380 ng/mL.

— patent publication US8889724B2, “Tetrazole compounds for reducing uric acid” (Wellstat Therapeutics Corporation, priority 2008, dated 2014)
